The values below come from patent publication US20220281879A1, “SALT AND CRYSTAL FORMS OF AN ACTIVIN RECEPTOR-LIKE KINASE INHIBITOR” (Blueprint Medicines Corporation, priority 2019, published 2022).

Data set [1] in a line: Humidity exposure at 75% relative humidity / 40° C. for one week with XRPD. Conditions: 75% RH / 40° C.
Description: The Sesqui-Succinate obtained in Example 2.1 was exposed to 75% relative humidity at 40° C. for one week. The samples were placed in a 4 mL vial covered with a Kimwipe® and then placed in a 20 mL vial containing 3-4 mL saturated NaCl in water. The 20 mL vials were sealed and held at 40° C. Solids were collected for XRPD analysis after one week.
HCl salt Monohydrate Form A was placed at 40° C./75% relative humidity for one week. About 10 mg sample was placed in a 4 mL vial covered with a Kimwipe®. The vial was then placed inside a 20 mL sealed vial containing saturated aqueous sodium chloride.
The nature of data set [2]: Solubility at 37° C. in water and simulated fluids (FaSSIF, FaSSGF). It is filed as physicochemical. The note with it: for Solubility at 37° C. FaSSGF: fasted state simulated gastric fluid; for Solubility at 37° C. FaSSIF: fasted state simulated intestinal fluid. The source says:
Crystalline salts were characterized and evaluated for viability based on melting point, crystallinity, stability on drying and humidity exposure, water solubility, polymorphism, and acceptability of counter-ion.

A short description of data set [3]: Drying and humidity exposure (>90% RH) with XRPD. Conditions: for physical stability on humidity exposure: >90% RH, overnight / one day; for physical stability on humidity exposure / stability on drying and humidity exposure: XRPD; for physical stability in humid environment, prolonged: >90% relative humidity, days to one week; for stability on drying and humidity exposure: dried under vacuum at 50° C., then >90% RH one day.
Description: XRPD analysis was done in three stages. XRPD of the wet cake was done for all samples (where solids were observed). Unique solids were then left on XRPD plates and dried under vacuum at 50° C. for at least 3 hours. XRPD of unique dry solids was then done. Solids were then exposed to >90% relative humidity for one day and XRPD on resulted solids was done. The humid environment was generated by placing a beaker of saturated potassium sulfate in water in a sealed container. All XRPD patterns were compared to counter ion XRPD patterns and known free molecule patterns.
A crystalline form of the free base was exposed to high humidity (>90% RH) overnight. The humid environment was generated by placing a beaker of saturated potassium sulfate in water in a sealed container.

Data set [4] in a line: Solubility in organic solvent systems at room temperature. The note with it: organic solvent or mixture, most organic solvents tested. Format: physicochemical.
Data set [5] in a line: Dynamic Vapor Sorption (DVS). It is filed as physicochemical. Conditions: for DVS Mass Change: between 2 and 95% relative humidity at 25° C.; for XRPD after DVS measurement: after 2-95% RH cycle. The procedure: Dynamic Vapor Sorption (DVS) was done using a DVS Intrinsic 1. The sample was loaded into a sample pan and suspended from a microbalance. A typical sample mass for DVS measurement is 25 mg. Nitrogen gas bubbled through distilled water provides the desired relative humidity. The sample was held for a minimum of 5 min at each level and only progressed to the next humidity level if there was <0.002% change in weight between measurements (interval: 60 seconds) or […] had elapsed. A typical measurement comprises the steps: • 1—Equilibrate at 50% RH • 2—50% to 2%. (50%, 40%, 30%, 20%, 10% and 2%) • a. Hold minimum of 5 mins and maximum of 60 minutes at each humidity. • The pass criteria is less than 0.002% change • 3—2% to 95% (2%, 10%, 20%, 30%, 40%, 50%, 60%, 70%, 80%, 90%, 95%) • a. Hold minimum of 5 mins and maximum of 60 minutes at each humidity.
The pass criteria is less than 0.002% change • 4—95% to 2% (95%, 80%, 70%, 60%, 50%, 40%, 30%, 20%, 10%, 2%) • a. Hold minimum of 5 mins and maximum of 60 minutes at each humidity. • The pass criteria is less than 0.002% change • 5—2% to 50% (2%, 10%, 20%, 30%, 40%, 50%) • a. Hold minimum of 5 mins and maximum of 60 minutes at each humidity. • The pass criteria is less than 0.002% change

A short description of data set [6]: Exposure to dry conditions and re-humidification with XRPD. It is filed as physicochemical. The procedure:
The 1:1 Compound (I) Crystalline HCl salt Monohydrate obtained from Example 3.1 was exposed to various drying conditions and then analyzed by XRPD.
The conditions were: (1) room temperature in vial containing P2O5 at 50° C., (2) 60° C. under vacuum, and (3) heating to 140° C. in DSC.
The HCl salt exposed to P2O5 at 50° C. was sampled for XRPD at the 7 day mark.

Data set [7] is described as follows: Variable humidity and variable temperature XRPD (VH-XRPD, VT-XRPD). Format: physicochemical. Conditions: for variable humidity XRPD: change of crystalline structure: 0-90% RH; for variable temperature XRPD: change of crystalline structure: ambient to 160° C. The procedure: Powder X-ray diffraction was done using a Rigaku MiniFlex 600 or a Bruker D8 Advance equipped with Lynxeye detector in reflection mode (i.e. Bragg-Brentano geometry). Samples were prepared on Si zero-return wafers. A typical scan is from 2θ of 4 to 30 degrees, with step size 0.05 degrees over five minutes with 40 kV and 15 mA. A high-resolution scan is from 2θ of 4 to 40 degrees, with step size 0.05 degrees over thirty minutes with 40 kV and 15 mA. Typical parameters for XRPD are listed below.

Where [8] appears, read: listed as free base of Compound (I).
The mark [9] stands for this setting: listed as HCl salt Monohydrate Form A.
[10] abbreviates: listed as Compound (I) Sesqui-Succinate Form A.
[11] abbreviates: listed as Compound (I) Sesqui-Succinate salt Form A.

The structures appear in SMILES notation. Values after ≈ are worked out from the molar mass of the structure shown. “Also recorded” adds a separate entry of the source. Structures can show the parent of a compound that is named as a salt. Where two headings read alike, the source gives them in different places.

As for `CCOC1(c2ccc(-c3cc4c(N5CCN(C(=O)O[C@@H]6CCOC6)CC5)ccnn4c3)nc2)CCN(C(C)C)CC1` [Amorphous solid (Compound (I) Sesqui-Succinate)], the “physical stability after one week humidity exposure” value in data set [1] is “crystalline Form A”.

As for `CCOC1(c2ccc(-c3cc4c(N5CCN(C(=O)O[C@@H]6CCOC6)CC5)ccnn4c3)nc2)CCN(C(C)C)CC1` [Benzoate], the “water solubility (in words)” value in data set [2] (salt screening evaluation) is on record as “poor water solubility”. The “physical stability on humidity exposure” value in data set [3] (listed as benzoic acid) is recorded as “did not deliquesce”.

Take `CCOC1(c2ccc(-c3cc4c(N5CCN(C(=O)O[C@@H]6CCOC6)CC5)ccnn4c3)nc2)CCN(C(C)C)CC1` [Besylate]: the “physical stability on humidity exposure” value is reported as “deliquesced” in data set [3] and “deliquescence” in data set [3] (listed as besylate).

Turning to `CCOC1(c2ccc(-c3cc4c(N5CCN(C(=O)O[C@@H]6CCOC6)CC5)ccnn4c3)nc2)CCN(C(C)C)CC1` [Compound (I)], the Solubility (commonly the dissolved amount per volume that the medium holds) at 37° C. FaSSGF in data set [2] (listed as Freebase) is listed as 7.29 mg/mL (≈ 13 mM); in data set [2] (listed as freebase), about 17 mg/mL (≈ 30.2 mM). For the same molecule, the “Solubility at 37° C. FaSSIF” value in data set [2] (listed as Freebase) is recorded as 17.9 mg/mL (≈ 31.8 mM); in data set [2] (listed as freebase) it was about 7 mg/mL (≈ 12.4 mM). For the same molecule, in data set [2] (water, listed as freebase), the “Solubility at 37° C. Water” value is recorded as 0.08 mg/mL (≈ 0.142 mM). The solubility (as a rule, the concentration that dissolves in the medium under given conditions) in data set [4] was over 200 mg/mL. In addition, the “DVS mass change occurring above 70% relative humidity” value in data set [5] (25° C., above 70% RH) was 0.46-0.53 wt. %. Also, the “DVS Mass Change” value in data set [5] (listed as Freebase) and in data set [5] (setting [8]) was 0.88-0.92 wt. % each time. Further, in data set [3] (listed as free base), the “physical stability on humidity exposure” value is recorded as “lost some crystallinity”. Further, the “physical stability in humid environment, prolonged” value in data set [3] (listed as free base) is given as “deliquesced”; in data set [3] (setting [8]) it was “physically unstable”; in data set [3] (listed as freebase), “turned into a sticky gum”. In addition, the “behaviour on exposure to water” value is listed as “tends to gum” in data set [3] (setting [8]) and “gums in water” in data set [3] (listed as freebase).

As to `CCOC1(c2ccc(-c3cc4c(N5CCN(C(=O)O[C@@H]6CCOC6)CC5)ccnn4c3)nc2)CCN(C(C)C)CC1` [Form D], the “form conversion on exposure to ambient conditions” value in data set [6] (bench, 22-23° C., 28-35% RH, 2.25 hours) is “converted to Form A”. Further, the “physical stability on humidity exposure” value in data set [3] is “converted to Form A (monohydrate)”. For the same molecule, the “physical stability after one week humidity exposure” value in data set [1] is “converted to Form A (monohydrate)”.

With `CCOC1(c2ccc(-c3cc4c(N5CCN(C(=O)O[C@@H]6CCOC6)CC5)ccnn4c3)nc2)CCN(C(C)C)CC1` [Form I], the “physical stability on humidity exposure” value in data set [3] is reported as “partially converted to Form A”.

Turning to `CCOC1(c2ccc(-c3cc4c(N5CCN(C(=O)O[C@@H]6CCOC6)CC5)ccnn4c3)nc2)CCN(C(C)C)CC1` [Mono-HCl Form A], in data set [2], the “solubility in water and in simulated gastric fluids (in words)” value is on record as “good solubility”; the “Solubility at 37° C. FaSSGF” value is listed as 6.96 mg/mL; the “Solubility at 37° C. FaSSIF” value was 30.9 mg/mL. Also, in data set [2] (listed as mono-HCl salt), the “Solubility at 37° C. FaSSGF” value is on record as over 30 mg/mL and the “Solubility at 37° C. FaSSIF” value was about 7 mg/mL. Also, in data set [2] (water), the “Solubility at 37° C. Water” value is 33.4 mg/mL. Besides, in data set [2] (water, listed as mono-HCl salt), the “Solubility at 37° C. Water” value is reported as over 30 mg/mL. Further, the “DVS mass change occurring below 20% relative humidity” value in data set [5] (25° C., below 20% RH) was 0.99-1.11 wt. %. Also, in data set [5] (setting [9]), the “XRPD after DVS measurement” value is listed as “extra peaks were observed” and the “DVS Mass Change” value is listed as 1.30-1.43 wt. %. Further, in data set [5], the “DVS Mass Change” value is reported as 1.30-1.43 wt. %. Also, the “hygroscopicity (in words)” value in data set [5] (listed as 1:1 hydrochloric acid salt) was “non-hygroscopic”. In addition, in data set [7] (setting [9]), the “variable humidity XRPD: change of crystalline structure” value is listed as “small shift” and the “variable temperature XRPD: change of crystalline structure” value is “does not appear to collapse and/or re-arrange”. The “XRPD after exposure to drying conditions” value in data set [6] (P2O5 at 50° C., 60° C. under vacuum, heating to 140° C. in DSC) is “a new XRPD pattern was observed”. The “physical stability on humidity exposure” value in data set [3] (listed as HCl (1 eq.)) was “did not deliquesce”. Besides, the “physical stability after one week humidity exposure” value in data set [1] (setting [9]) is reported as “minor peak shifts”.

As to `CCOC1(c2ccc(-c3cc4c(N5CCN(C(=O)O[C@@H]6CCOC6)CC5)ccnn4c3)nc2)CCN(C(C)C)CC1` [Salicylate], in data set [3] (listed as salicylic acid), the “physical stability on humidity exposure” value was “did not deliquesce”.

For `CCOC1(c2ccc(-c3cc4c(N5CCN(C(=O)O[C@@H]6CCOC6)CC5)ccnn4c3)nc2)CCN(C(C)C)CC1` [Succinate Form A], in data set [2], the “solubility in water and in simulated gastric fluids (in words)” value was “good solubility”; the “Solubility at 37° C. FaSSGF” value is over 25.9 mg/mL; the “Solubility at 37° C. FaSSIF” value is recorded as over 22.2 mg/mL. Besides, in data set [2] (in all fluids), the “solubility in water and simulated fluids (all fluids)” value is reported as over 22 mg/mL. For the same molecule, the “Solubility at 37° C. Water” value in data set [2] (water) was over 34.0 mg/mL. Further, in data set [2] (water, FaSSIF and FaSSGF (all fluids), thermodynamic from solid, in all fluids), the solubility was over 22 mg/mL. Also, in data set [5], the “hygroscopicity (in words)” value is “less hygroscopic than the mono-HCl salt and freebase”; the “DVS Mass Change” value is listed as 0.59-0.60 wt. %. In data set [5] (25° C., above 80% RH), the “DVS mass change occurring above 80% relative humidity” value is on record as 0.34-0.35 wt. %. Besides, in data set [5] (setting [10]), the “XRPD after DVS measurement” value was “remained as Form-A” and the “DVS Mass Change” value is given as 0.59-0.60 wt. %. Further, the “hygroscopicity (in words)” value in data set [5] (listed as 1.5:1 succinic acid salt) is “non-hygroscopic”. Further, in data set [7] (setting [11]), the “variable humidity XRPD: change of crystalline structure” value is recorded as “no change in the crystalline structure” and the “variable temperature XRPD: change of crystalline structure” value was “no change in the crystalline structure”. The “physical stability on humidity exposure” value in data set [3] (listed as succinic acid) was “did not deliquesce”. Also, the “stability on drying and humidity exposure” value in data set [3] is “stable on drying and humidity exposure”. Further, the “physical stability after one week humidity exposure” value in data set [1] (setting [10]) is “physically stable by XRPD”.

On to `CCOC1(c2ccc(-c3cc4c(N5CCN(C(=O)O[C@@H]6CCOC6)CC5)ccnn4c3)nc2)CCN(C(C)C)CC1` [bis-HCl], for which the entries for the “physical stability on humidity exposure” value in data set [3] and in data set [3] (listed as 2:1 HCl) were “deliquesced” and “deliquescence”, respectively.

As to `CCOC1(c2ccc(-c3cc4c(N5CCN(C(=O)O[C@@H]6CCOC6)CC5)ccnn4c3)nc2)CCN(C(C)C)CC1` [fumarate Form B], the “stability on drying and humidity exposure” value in data set [3] is “stable on drying and humidity exposure”.

As to `CCOC1(c2ccc(-c3cc4c(N5CCN(C(=O)O[C@@H]6CCOC6)CC5)ccnn4c3)nc2)CCN(C(C)C)CC1` [fumarate], the “solubility in water and in simulated gastric fluids (in words)” value in data set [2] is “good solubility”.

Consider `CCOC1(c2ccc(-c3cc4c(N5CCN(C(=O)O[C@@H]6CCOC6)CC5)ccnn4c3)nc2)CCN(C(C)C)CC1` [maleate], for which the entries for the “physical stability on humidity exposure” value in data set [3] and in data set [3] (listed as maleic acid) were “deliquescence; also recorded: deliquesced” and “deliquesced”, respectively.
